Series [1] concerns T cell lymphoma. The series can be described thus: Prior treatment history of the study patients. The series is classed as in vivo, human. Particulars: Patient 2: Lymphoblastic Lymphoma, Precursor T-cell; MTX May 2002 through February 2004.
The subject of a further series is murine L1210 cell line. The conditions noted are these: cited from earlier work.
Series [2] concerns the target T1, dihydrofolate reductase (DHFR) (Mus musculus, UniProt P00375).
T1 sequence (P00375 1-187): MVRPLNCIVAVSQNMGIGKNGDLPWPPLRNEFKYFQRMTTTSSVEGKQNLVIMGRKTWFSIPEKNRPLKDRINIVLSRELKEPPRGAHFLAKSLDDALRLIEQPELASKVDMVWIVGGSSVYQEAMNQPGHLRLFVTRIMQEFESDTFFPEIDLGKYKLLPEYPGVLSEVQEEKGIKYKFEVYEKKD
The conditions noted are these: relative to L1210 growth inhibition; cited from earlier work.

Series [3] relates to T cell lymphoma. The format is in vivo. The method, then: Each of these patients was also treated with folic acid (1 mg/m^2 daily starting 1 week prior to treatment with PDX) and B12 (1 mg/m^2 monthly) supplementation.
Another series relates to mesothelioma. Particulars: cited from earlier work.
The test system of series [4] is human tumors (mammary, lung) xenograft. The conditions noted are these: cited from earlier work.
[5] abbreviates: Patient 2: Lymphoblastic Lymphoma, Precursor T-cell, Stage IV, PDX 30 mg/m^2 x 3 weeks every 4 weeks, 3 cycles.
The mark [6] stands for this setting: Patient 3: HTLV Associated T-cell Lymphoma, PDX 30 mg/m^2 weekly x 3 every 4 weeks x 2 cycles.
Setting [7] is: Patient 4: Panniculitic T-cell Lymphoma, PDX 30 mg/m^2 weekly x 4.

“Also recorded” adds a separate entry of the source. Read-outs that look alike come from different tables or passages of the source.

Take `CN(Cc1cnc2nc(N)nc(N)c2n1)c1ccc(C(=O)N[C@@H](CCC(=O)O)C(=O)O)cc1` [methotrexate]: the “Response to prior treatment” value in the series on T cell lymphoma [1] is given as “essentially methotrexate resistant disease”.

For `C#CCC(Cc1cnc2nc(N)nc(N)c2n1)c1ccc(C(=O)N[C@@H](CCC(=O)O)C(=O)O)cc1` (stereo partly drawn) [PDX, 10-Propargyl-10-deazaaminopterin], in the series with murine L1210 cell line, the Inhibition of growth result was “inhibitor of growth”. Further, the “Inhibition of the enzyme” value in series [2] is on record as “to a lesser extent”. Besides, the “Overall response of the patients with T-cell lymphoma treated with PDX” value in the series with T cell lymphoma [3] (4 patients, PET imaging) was “all four have met criteria for complete remission”. Further, the Toxicities result in the series with T cell lymphoma [3] (Patient 1: Peripheral T-cell Lymphoma, Stage IV, PDX 135 mg/m^2 x 1 dose) is on record as “Grade 3 stomatitis; neutropenia grade 3; sepsis”; in the series on T cell lymphoma [3] (setting [5]), “None”; in the series with T cell lymphoma [3] (setting [6]), “None”; with T cell lymphoma [3] (setting [7]), “None”. Moreover, the Response entry in the series with T cell lymphoma [3] (Patient 1: Peripheral T-cell Lymphoma, Stage IV, PDX 135 mg/m^2 x 1 dose, folic acid and B12 supplementation) was “Essentially complete remission by PET scan”; in the series with T cell lymphoma [3] (setting [5]) it was “Complete remission by PET and CT scans”; with T cell lymphoma [3] (setting [6]), “Complete remission”; with T cell lymphoma [3] (setting [7]), “Clinical complete remission by PET”. Also, the Efficacy against mesothelioma entry in the series with mesothelioma is “effective against mesothelioma”. The “Efficacy against human tumors compared with reference antifolates” value in series [4] (highly purified PDX compositions) is on record as “far superior to methotrexate; also recorded: superior to edatrexate”. The “Tumor growth after cessation of therapy” value in series [4] (several weeks after the cessation of therapy) is reported as “no evidence of tumor growth”.
